According to ChEMBL document CHEMBL1201862, “PubChem BioAssay data set” (2004):
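Method: 48-hour compound exposure of cells in 96-well plates, five concentrations, linear interpolation of endpoints. Here, GI50 denotes the concentration required for 50% inhibition of growth.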 Active and inactive are the calls of the source. Rule as the data show it: active = GI50 up to about 1.1 µM and inactive = higher.

How the values were obtained:
Assay in all cases: NCI anticancer screen, dose series, 48 h
[1] = tested on: 786-0
[2] = tested on: A498
[3] = tested on: A549
[4] = tested on: ACHN
[5] = tested on: BT-549
[6] = tested on: CAKI-1
[7] = tested on: CCRF-CEM
[8] = tested on: COLO 205
[9] = tested on: DU-145
[10] = tested on: EKVX
[11] = tested on: HCT-116
[12] = tested on: HCT-15
[13] = tested on: HL-60
[14] = tested on: HOP-62
[15] = tested on: HOP-92
[16] = tested on: Hs-578T
[17] = tested on: IGROV-1
[18] = tested on: K562
[19] = tested on: KM12
[20] = tested on: LOX IMVI
[21] = tested on: M14
[22] = tested on: MCF7
[23] = tested on: MDA-MB-231
[24] = tested on: MDA-MB-435
[25] = tested on: MDA-N
[26] = tested on: MOLT-4
[27] = tested on: Malme-3M
[28] = tested on: NCI-H23
[29] = tested on: NCI-H460
[30] = tested on: NCI-H522
[31] = tested on: NCI/ADR-RES
[32] = tested on: OVCAR-3
[33] = tested on: OVCAR-5
[34] = tested on: OVCAR-8
[35] = tested on: PC-3
[36] = tested on: RPMI-8226
[37] = tested on: RXF 393
[38] = tested on: SF-268
[39] = tested on: SF-295
[40] = tested on: SF-539
[41] = tested on: SK-MEL-2
[42] = tested on: SK-MEL-5
[43] = tested on: SK-OV-3
[44] = tested on: SN12C
[45] = tested on: SNB-19
[46] = tested on: SR
[47] = tested on: SW-620
[48] = tested on: T47D
[49] = tested on: TK-10
[50] = tested on: U-251
[51] = tested on: UACC-257
[52] = tested on: UACC-62
[53] = tested on: UO-31
[54] = tested on: HT-29
[55] = tested on: NCI-H226
[56] = tested on: OVCAR-4
[57] = tested on: SK-MEL-28
[58] = tested on: SNB-75

Measured: GI50

COc1ccc(/C=C/C(=O)C(C)(C)Br)cc1
2.62 µM: [12]
inactive: [1] 3.48 µM | [2] 20 µM | [3] 20.3 µM | [4] 8.55 µM | [5] 1.92 µM | [6] 17.4 µM | [7] 1.59 µM | [8] 15 µM | [9] 14.3 µM | [10] 15.1 µM | [11] 2.19 µM | [13] 19.5 µM | [14] 6.3 µM | [15] 11.8 µM | [16] 16.3 µM | [17] 1.71 µM | [18] 4.61 µM | [19] 16.1 µM | [20] 7.33 µM | [21] 1.56 µM | [22] 5.11 µM | [23] 20 µM | [24] 11.5 µM | [25] 7.57 µM | [26] 3.86 µM | [27] 13.5 µM | [28] 2.25 µM | [29] 18.9 µM | [30] 1.22 µM | [31] 24 µM | [32] 17.5 µM | [33] 12 µM | [34] 3.04 µM | [35] 11.7 µM | [36] 3.42 µM | [37] 1.4 µM | [38] 15.2 µM | [39] 17.9 µM | [40] 17.1 µM | [41] 12.2 µM | [42] 14.7 µM | [43] 22.2 µM | [44] 4.95 µM | [45] 25.8 µM | [46] 3.3 µM | [47] 2.43 µM | [48] 20.8 µM | [49] 14.6 µM | [50] 13.7 µM | [51] 15.5 µM | [52] 12.7 µM | [53] 4.27 µM

O=c1[nH]c(=O)n(C2CC(O)C(CO)O2)cc1OCCc1ccccc1 (stereo unspecified)
> 100 µM: [12]
inactive: [1] > 100 µM | [3] > 100 µM | [4] > 100 µM | [5] > 100 µM | [6] > 100 µM | [7] > 100 µM | [8] > 100 µM | [9] > 100 µM | [10] > 100 µM | [11] > 100 µM | [13] > 100 µM | [14] > 100 µM | [54] > 100 µM | [16] > 100 µM | [17] > 100 µM | [18] > 100 µM | [19] > 100 µM | [20] > 100 µM | [21] > 100 µM | [22] > 100 µM | [23] > 100 µM | [24] > 100 µM | [25] > 100 µM | [26] > 100 µM | [27] > 100 µM | [55] > 100 µM | [28] > 100 µM | [29] > 10 µM | [30] > 100 µM | [31] > 100 µM | [32] > 100 µM | [56] > 100 µM | [33] > 100 µM | [34] > 100 µM | [35] > 100 µM | [36] > 100 µM | [37] > 100 µM | [38] > 100 µM | [39] > 100 µM | [57] > 100 µM | [42] > 100 µM | [43] > 100 µM | [44] > 100 µM | [45] > 100 µM | [58] > 100 µM | [46] > 100 µM | [48] > 100 µM | [49] > 100 µM | [50] > 100 µM | [51] > 100 µM | [52] > 100 µM | [53] > 100 µM
